The text below walks through data of US9296759B2, “Amino-oxazine and amino-dihydrothiazine compounds as beta-secretase modulators and methods of use” (AMGEN INC., priority 2011, dated 2016).

In one assay the test system is Abeta 40. The experiment in a line: In vivo inhibition of beta-secretase: Abeta 40 reduction in CSF and brain of the rat. The settings on record: 10 mpk, after 4 hrs. The text has this: In Vivo Inhibition of Beta-Secretase
Several animal models, including mouse, rat, dog, and monkey, may be used to screen for inhibition of beta-secretase activity in vivo following administration of a test compound sample. Animals used in this invention can be wild type, transgenic, or gene knockout animals. For example, the Tg2576 mouse model, prepared and conducted as described in Hsiao et al., 1996, Science 274, 99-102, and other non-transgenic or gene knockout animals are useful to analyze in vivo inhibition of Amyloid beta peptide (Abeta) production in the presence of inhibitory test compounds. Generally, 2 to 18 month old Tg2576 mice, gene knockout mice or non-transgenic animals are administered test compounds formulated in vehicles, such as cyclodextran, phosphate buffers, hydroxypropyl methylcellulose or other suitable vehicles. One to twenty-four hours following the administration of compound, animals are sacrificed, and brains as well as cerebrospinal fluid (CSF) and plasma are removed for analysis of A-beta levels and drug or test compound concentrations (Dovey et al., 2001, Journal of Neurochemistry, 76, 173-181) Beginning at time 0, animals are administered by oral gavage, or other means of delivery such as intravenous injection, an inhibitory test compound of up to 100 mg/kg in a standard, conventional formulation, such as 2% hydroxypropyl methylcellulose, 1% Tween80. A separate group of animals receive 2% hydroxypropyl methylcellulose, 1% Tween80 alone, containing no test compound, and serve as a vehicle-control group. At the end of the test period, animals are sacrificed and brain tissues, plasma or cerebrospinal fluid are collected. Brains are either homogenized in 10 volumes (w/v) of 0.2% diethylamine (DEA) in 50 mM NaCl (Best et al., 2005, Journal of Pharmacology and Experimental Therapeutics, 313, 902-908), or in 10 volumes of 0.5% TritonX-100 in Tris-buffered saline (pH at about 7.6). Homogenates are centrifuged at 355,000 g, 4° C. for 30 minutes. CSF or brain supernatants are then analyzed for the presence of A-beta peptide by specific sandwich ELISA assays based on ECL (Electrochemiluminescence) technology. For example, rat Abeta40 is measured using biotinylated-4G8 (Signet) as a capture antibody and Fab40 (an in-house antibody specific to the C-terminal of Abeta40) as a detection antibody. For example, 4 hours after administration of 30 mg/kg oral dose of the test compound in 2% hydroxypropyl methylcellulose, 1% Tween80 (pH2.2) to 200 g male Sprague Dawley rats, amyloid beta peptide levels are measured for reduction by X % and Y % in cerebrospinal fluid and brain, respectively, when compared to the levels measured in the vehicle-treated rats.
• Oral: 2% HPMC, 1% Tween80, pH 2.2 • IV: 5% EtOH, 45% Propylene glycol in 5% Dextrose
The compounds of the invention may be shown to reduce the formation and/or deposition of amyloid beta peptide in the cerebrospinal fluid (CSF) as well as in the brain of a mouse or rat at either 3 mpk, 10 mpk or 30 mpk (mpk=mg compound per kg weight of the animal) dosing concentrations after 4 hrs.

The target of assay [1] is BACE 1 (beta secretase enzyme) (Homo sapiens (Human), UniProt P56817). The experiment in a line: In vitro enzymatic BACE FRET assay. Type of assay: biochemical. The settings on record: average IC50. A digest of the protocol: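 The enzyme was tested in 0.05 M acetate, pH 4.2, with 10% DMSO final and 100 uM genapol. The reaction was started with 50 nM quenched FRET peptide substrate, incubated one hour and stopped with Tris to neutral pH. Cleavage was read as fluorescence ([…]).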

In assay [2] the test system is Aβ40 in conditioned medium of cells stably expressing Amyloid Precursor Protein (APP). The assay can be described thus: In vitro BACE cell-based assay (HEK cell assay, Aβ40 sandwich ELISA). The settings on record: Homo sapiens, HEK293; average IC50, Aβ40, 24 h incubation. The method, boiled down: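 Aβ40 in supernatants was measured by time-resolved fluorescence sandwich ELISA using pAb40 capture and biotinylated 6E10 detection, with antibody incubations at 4 °C. Stable APP cells were exposed to compounds for 24 h in a 10-point series (top dose 100 or 10 µM, 0.1% DMSO). IC50 was fitted from the concentration-response.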

For a further assay, the target named is Cathepsin D (Homo sapiens (Human), UniProt P07339). The experiment in a line: In vitro enzymatic Cat D (Cathepsin D) FRET assay. Format: biochemical. The conditions noted are these: average IC50. The method, boiled down:
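CHO-expressed recombinant enzyme in 0.05 M citrate pH 3.5, 5 mM CHAPS, 10% DMSO final; reaction started with 20 nM quenched-peptide FRET substrate (cleavage site spanned by fluorophore/quencher), 1 h incubation.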

[3] abbreviates: Abeta 40, rat CSF, read-out: % reduction of rat CSF levels at 10 pmk.
Where [4] appears, read: Abeta 40, rat brain, read-out: % reduction of rat brain levels at 10 mpk.

Molecules are shown by their SMILES. Like-named read-outs stand apart in the source and are kept apart here.

Sequence of BACE 1 (beta secretase enzyme) (P56817 46-501): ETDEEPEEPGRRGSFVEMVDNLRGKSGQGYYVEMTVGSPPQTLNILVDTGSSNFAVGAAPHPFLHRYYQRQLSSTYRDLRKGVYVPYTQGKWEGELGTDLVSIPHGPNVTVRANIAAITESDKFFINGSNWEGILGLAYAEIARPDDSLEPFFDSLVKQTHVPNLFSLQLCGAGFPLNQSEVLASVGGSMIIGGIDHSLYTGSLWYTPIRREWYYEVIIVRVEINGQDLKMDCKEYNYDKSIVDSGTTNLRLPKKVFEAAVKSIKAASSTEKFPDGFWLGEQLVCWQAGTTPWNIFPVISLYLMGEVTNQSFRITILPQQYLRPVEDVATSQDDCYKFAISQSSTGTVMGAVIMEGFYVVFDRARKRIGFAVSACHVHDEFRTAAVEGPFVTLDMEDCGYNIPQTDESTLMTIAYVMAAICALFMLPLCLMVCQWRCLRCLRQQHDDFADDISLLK
Sequence of Cathepsin D (P07339 65-412, species assumed): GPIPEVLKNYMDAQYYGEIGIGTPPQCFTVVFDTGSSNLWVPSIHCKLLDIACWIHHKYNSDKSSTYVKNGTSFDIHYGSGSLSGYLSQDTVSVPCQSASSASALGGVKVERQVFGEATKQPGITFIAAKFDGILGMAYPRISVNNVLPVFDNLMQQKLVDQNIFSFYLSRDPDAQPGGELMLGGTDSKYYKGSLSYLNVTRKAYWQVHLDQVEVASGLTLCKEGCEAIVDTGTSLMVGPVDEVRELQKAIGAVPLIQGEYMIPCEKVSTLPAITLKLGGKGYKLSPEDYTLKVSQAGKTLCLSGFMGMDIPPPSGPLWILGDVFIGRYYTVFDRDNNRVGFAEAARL

For orientation: IC50 means the concentration that gives 50% inhibition. As for `NC1=N[C@@]2(CCO1)c1cc(NC(=O)c3ccc(Cl)cn3)ccc1Oc1c2cc(C2CC2)nc1F` [Example 40, N-((5S)-2′-amino-3-cyclopropyl-1-fluoro-5′,6′-dihydrospiro[chromeno[2,3-c]pyridine-5,4′-[1,3]oxazin]-7-yl)-5-chloro-2-pyridinecarboxamide], the inhibition in vivo at 10 mg/kg in the assay on Abeta 40 (setting [3]) came out at 75%; in the assay with Abeta 40 (setting [4]) it was 58%. The IC50 in assay [1] is 2.4 nM; in assay [2], 3.4 nM.
In the case of `NC1=N[C@@]2(CCO1)c1cc(NC(=O)c3ccc(Cl)cn3)ccc1Oc1ncc(C3=CCOCC3)cc12` [Example 45, N-((5S)-2′-amino-3-(3,6-dihydro-2H-pyran-4-yl)-5′,6′-dihydrospiro[chromeno[2,3-b]pyridine-5,4′-[1,3]oxazin]-7-yl)-5-chloro-2-pyridinecarboxamide], the IC50 on Cathepsin D was 341000 nM; in assay [2] it was 0.6 nM. For the same molecule, the inhibition in vivo at 10 mg/kg in the assay on Abeta 40 (setting [3]) was 27%; in the assay with Abeta 40 (setting [4]) it was 14%.
Consider `COc1cnc(C(=O)Nc2ccc3c(c2)[C@@]2(CCOC(N)=N2)c2cc(C4=CCCOC4)ncc2O3)cn1` [Example 58, N-((5S)-2′-amino-3-(5,6-dihydro-2H-pyran-3-yl)-5′,6′-dihydrospiro[chromeno[2,3-c]pyridine-5,4′-[1,3]oxazin]-7-yl)-5-methoxy-2-pyrazinecarboxamide], for which the inhibition in vivo at 10 mg/kg in the assay on Abeta 40 (setting [3]) is 55%; with Abeta 40 (setting [4]) it was 36%. The IC50 in assay [1] was 9.4 nM; in assay [2] it was 1.1 nM.
Turning to `CC(C)(C)C#Cc1cc2c(cn1)Oc1ccc(NC(=O)c3ccc(Cl)cn3)cc1[C@@]21CCOC(N)=N1` [Example 82, N-((5S)-2′-amino-3-(3,3-dimethyl-1-butyn-1-yl)-5′,6′-dihydrospiro[chromeno[2,3-c]pyridine-5,4′-[1,3]oxazin]-7-yl)-5-chloro-2-pyridinecarboxamide], the inhibition in vivo at 10 mg/kg in the assay on Abeta 40 (setting [3]) is 67%; in the assay with Abeta 40 (setting [4]) it was 42%. Moreover, the IC50 in assay [1] was 10 nM; in assay [2], 1.9 nM.
For `COc1cnc(C(=O)Nc2ccc3c(c2)[C@@]2(CCOC(N)=N2)c2cc(-c4ccnc(F)c4)cc(F)c2O3)cn1` [Example 95, N-((4S)-2-amino-5′-fluoro-7′-(2-fluoro-4-pyridinyl)-5,6-dihydrospiro[1,3-oxazine-4,9′-xanthen]-2′-yl)-5-methoxy-2-pyrazinecarboxamide] the same measures were 54%, 21%, 6.5 nM and 5.6 nM.
For `NC1=N[C@@]2(CCO1)c1cc(NC(=O)c3ccc(F)cn3)ccc1Oc1c2cc(-c2ccnc(F)c2)nc1F` [Example 97, N-((5S)-2′-amino-1-fluoro-3-(2-fluoro-4-pyridinyl)-5′,6′-dihydrospiro[chromeno[2,3-c]pyridine-5,4′-[1,3]oxazin]-7-yl)-5-fluoro-2-pyridinecarboxamide], the inhibition in vivo at 10 mg/kg in the assay with Abeta 40 (setting [3]) came to 63%; in the assay with Abeta 40 (setting [4]), 44%. In addition, the IC50 stood at 1.2 nM in assay [1] and 1.1 nM in assay [2].
Consider `COc1cnc(C(=O)Nc2ccc3c(c2)[C@@]2(CCOC(N)=N2)c2cc(C4=CCCOC4)cc(F)c2O3)cn1` [Example 106, N-((4S)-2-amino-7′-(5,6-dihydro-2H-pyran-3-yl)-5′-fluoro-5,6-dihydrospiro[1,3-oxazine-4,9′-xanthen]-2′-yl)-5-methoxy-2-pyrazinecarboxamide], for which the half-inhibitory concentration (IC50) is 107000 nM at Cathepsin D and 1.6 nM in assay [2]. The results for the inhibition in vivo at 10 mg/kg in the assay with Abeta 40 (setting [3]) and in the assay with Abeta 40 (setting [4]) were 43% and 16%, respectively.
Turning to `COc1ccc(C(=O)Nc2ccc3c(c2)[C@@]2(CCSC(N)=N2)c2cc(-c4ccnc(F)c4)nc(F)c2O3)nc1` [Example 115, N-((5S)-2′-amino-1-fluoro-3-(2-fluoro-4-pyridinyl)-5′,6′-dihydrospiro[chromeno[2,3-c]pyridine-5,4′-[1,3]thiazin]-7-yl)-5-methoxy-2-pyridinecarboxamide], the IC50 on Cathepsin D was determined as 162000 nM; in assay [1], 0.4 nM; in assay [2], 2.2 nM.
Turning to `NC1=N[C@@]2(CCS1)c1cc(NC(=O)c3ccc(Cl)cn3)ccc1Oc1c2cc(C2=CCOCC2)nc1F` [Example 117, N-((5S)-2′-amino-3-(3,6-dihydro-2H-pyran-4-yl)-1-fluoro-5′,6′-dihydrospiro[chromeno[2,3-c]pyridine-5,4′-[1,3]thiazin]-7-yl)-5-chloro-2-pyridinecarboxamide], the IC50 on Cathepsin D came to 133000 nM; in assay [2], 0.6 nM. In addition, the inhibition in vivo at 10 mg/kg in the assay on Abeta 40 (setting [3]) was 80%; in the assay on Abeta 40 (setting [4]), 70%.
In the case of `NC1=N[C@@]2(CCS1)c1cc(NC(=O)c3ccc(F)cn3)ccc1Oc1c2cc(-c2ccnc(F)c2)nc1F` [Example 118, N-((5S)-2′-amino-1-fluoro-3-(2-fluoro-4-pyridinyl)-5′,6′-dihydrospiro[chromeno[2,3-c]pyridine-5,4′-[1,3]thiazin]-7-yl)-5-fluoro-2-pyridinecarboxamide], the IC50 worked out at 400000 nM on Cathepsin D, 1.5 nM in assay [1] and 4.2 nM in assay [2].
As to `NC1=N[C@@]2(CCS1)c1cc(NC(=O)c3ncc(Cl)cc3F)ccc1Oc1c2cc(C2=CCOCC2)nc1F` [Example 119, N-((5S)-2′-amino-3-(3,6-dihydro-2H-pyran-4-yl)-1-fluoro-5′,6′-dihydrospiro[chromeno[2,3-c]pyridine-5,4′-[1,3]thiazin]-7-yl)-5-chloro-3-fluoro-2-pyridinecarboxamide], the IC50 on Cathepsin D is 311000 nM; in assay [1], 2.6 nM; in assay [2], 0.6 nM.
On the same counts, the results for `Cc1cc(Br)cnc1C(=O)Nc1ccc2c(c1)[C@@]1(CCSC(N)=N1)c1cc(C3=CCOCC3)nc(F)c1O2` [Example 120, N-((5S)-2′-amino-3-(3,6-dihydro-2H-pyran-4-yl)-1-fluoro-5′,6′-dihydrospiro[chromeno[2,3-c]pyridine-5,4′-[1,3]thiazin]-7-yl)-5-bromo-3-methyl-2-pyridinecarboxamide] are 88300 nM, 1.4 nM and 0.5 nM.
On the same counts, the results for `COc1cnc(C(=O)Nc2ccc3c(c2)[C@@]2(CCSC(N)=N2)c2cc(C4=CCOCC4)nc(F)c2O3)c(C)c1` [Example 121, N-((5S)-2′-amino-3-(3,6-dihydro-2H-pyran-4-yl)-1-fluoro-5′,6′-dihydrospiro[chromeno[2,3-c]pyridine-5,4′-[1,3]thiazin]-7-yl)-5-methoxy-3-methyl-2-pyridinecarboxamide] are 159000 nM, 5.4 nM and 1.8 nM.
For `Cc1cc(Cl)cnc1C(=O)Nc1ccc2c(c1)[C@@]1(CCSC(N)=N1)c1cc(C3=CCOCC3)nc(F)c1O2` [Example 122, N-((5S)-2′-amino-3-(3,6-dihydro-2H-pyran-4-yl)-1-fluoro-5′,6′-dihydrospiro[chromeno[2,3-c]pyridine-5,4′-[1,3]thiazin]-7-yl)-5-chloro-3-methyl-2-pyridinecarboxamide], the IC50 worked out at 133000 nM on Cathepsin D, 2.9 nM in assay [1] and 0.8 nM in assay [2].
